Laboratory results taken from patent US20160279190A1, “MODULATION OF AXON DEGENERATION” (GENENTECH, INC., priority 2008, published 2016).

System: sympathetic neurons
Test: toxin-induced degeneration of sympathetic neurons, MTT assay
Format: cell-based, rat
Conditions: 24 hour treatment with the toxin alone
Experimental: Cortical neurons plated for 3-4 days were treated with 300 nM vincristine, a microtubule destabilizer, for 6-72 hours. NGF withdrawal-induced apoptosis and degeneration were assayed between 4-36 hours after the final treatment. Apoptosis and degeneration were assayed using both the MTT assay and the lactate dehydrogenase assay. The MTT (3-(4,5-dimethylthiazol-2-yl)-2,5-diphenyltetrazolium bromide) assay measures cell viability based on mitochondrial function. MTT was added to a total of one tenth of the culture volume to each well and incubated at 37° C. with 5% CO2 for 90-120 minutes. The MTT-containing culture media was aspirated and the cells were resuspended in an equal volume of solubilization solution (10% triton X-100, 1 drop HCl, 50 mL isopropanol). Absorbance (570 and 690 nm) was read using a spectrophotometer. Lactate dehydrogenase (LDH) levels were assayed using a CytoTox non-radioactive LDH assay kit (Promega) to assess the amount of cell death in assays. Fifty μL of media from different treatment conditions were used according to the manufacturer's instructions. […]
Sympathetic cervical ganglia were dissected from postnatal day 1 Sprague-Dawley rats (Charles River Labs) and collected in a dish containing Ultraculture media (Lonza) with 5% fetal bovine serum (Invitrogen). […] The cell slurry was filtered over a […] cell strainer (Falcon) and cell number was counted. […]

Question: `CC[C@@]1(O)C(=O)OCc2c1cc1n(c2=O)Cc2cc3ccccc3nc2-1` [camptothecin] was tested. Which “% viability (normalized)” value did it give?
Answer: 79%
